Experimental data published in US20260101892A1, “METHOD TO INHIBIT PROLIFERATION OF A PHYTOPATHOGEN ON PLANTS AND COMPOSITIONS USED FOR THIS PURPOSE” (CYSBIO APS, priority 2022, published 2026).
Like-named read-outs stand apart in the source and are kept apart here.

Columns and labels:
[1] = system: late potato blight (Phytophtora infestans); format: in vivo, Phytophthora infestans; conditions: for reduction of pest severity: 5% zosteric acid and 0.3 L/ha BREAK THRU, vs untreated control
[2] = system: potatoes (Solanum tuberosum, variety Venezia); experiment: Phytotoxicity assessment in the potato blight climate chamber test; format: in vivo; conditions: throughout the trials (0.1%, 1%, 5% zosteric acid)
Procedure: The application was conducted with a Research Track Sprayer and three different concentrations of zosteric acid (0.1%, 1%, and 5%) were sprayed one day before pathogen inoculation and two different concentrations of zosteric acid (1% and 5%) were sprayed after inoculation as soon as the infection got visible. Plants were assessed for phytotoxicity and pest severity 0, 4, and 7 days after the curative application.

Alternaria alternata = experiment: Post-harvest preservation of capsicums; format: in vivo; conditions: capsicums sprayed twice, 10° C., followed 25 days, triplicate
Procedure: (§1) To investigate if zosteric acid and/or coumaric acid can protect fruit and vegetables against post-harvest infection with different fungi, zosteric and coumaric acids fungicidal effect was tested in capsicums and lemons infected with Alternaria alternata and Penicillium digitatum, respectively. The tests were performed by acquiring the relevant fruit and vegetables from the local supermarket. Both fruit and vegetables were bought as organic produce to ensure a minimum of pesticides had already been applied. […] Each application treatment was performed in triplicate on three separate pieces of produce. After treatment, the produce was allowed to dry in a sterile laminar flow cabinet followed by a second round of application and drying. The produce was then inoculated with the relevant fungal spores using a grafting stick. […] The inoculated produce was subsequently placed in […] plastic bags to prevent contamination with other organisms and to prevent the produce from drying out due to air circulation in the incubator. The wrapped capsicums and lemons were placed at 10° C. and the fungal growth followed by measuring the diameter of the growth from the point of inoculation for 25 days.

Penicillium digitatum = experiment: Post-harvest preservation of lemons; format: in vivo
Procedure: as §1

[3] = system: strawberries (Fragaria sp.); experiment: Phytotoxicity evaluation in the strawberry powdery mildew trial; format: in vivo; conditions: at concentrations that control disease
[4] = system: Blumeria graminis f. sp. tritici; experiment: Powdery mildew in wheat; format: in vivo; conditions: crop Wheat
Ustilago nuda = experiment: Loose smut of barley; format: in vivo; conditions: crop Barley
Septoria tritici = experiment: Septoria leaf blotch; format: in vivo
Leptosphaeria maculans = experiment: Blackleg disease in winter rape; format: in vivo; conditions: crop Brassica napus / winter rape
Cercospora beticola = experiment: Cercospora leaf spot disease in sugarbeet; format: in vivo; conditions: crop Beta vulgaris vulg. altissima / sugarbeet
Magnaporthe grisea = conditions: Rice blast; crop Rice; Stanley 2002; cited from earlier work
[5] = system: Colletotrichum lindemuthianum; conditions: Bean anthracnose; crop Bean; Stanley 2002; cited from earlier work
Penicillium citrinum = conditions: Mold on citrus fruits; N/A (In vitro); Villa et al 2010; cited from earlier work
Aspergillus niger = conditions: Common mold; N/A (In vitro); Villa et al 2010; cited from earlier work
pyronophora graminea = experiment: Seed dressing against barley stripe
Procedure: (§2) To investigate if zosteric acid can be applied as a seed dressing agent to prevent different seed borne fungal infections, the ability of zosteric acid to prevent infection of wheat and barley with the common bunt of wheat caused by tilletia caries and barley stribe, caused by pyronophora graminea was tested.
(§3) To investigate if zosteric acid can be applied as a seed dressing agent to prevent different seed borne fungal infections, the ability of zosteric acid to prevent infection of wheat and barley with the common bunt of wheat caused by tilletia caries and barley stribe, caused by pyronophora graminea) was tested.

tilletia caries = experiment: Seed dressing against common bunt of wheat
Procedure: as §2, §3

Puccinia striiformis = experiment: Yellow rust in wheat, greenhouse trial, contact fungicide; conditions: crop Wheat
Procedure: A greenhouse trial was conducted to investigate if zosteric acid could be applied as a contact fungicide to control yellow rust in wheat. Wheat was sowed in one-liter pots, with five replicates per treatment. 14 days after sowing, plants were sprayed with 150 L/ha of 10% zosteric acid with 0.1% Tween. For reference, an untreated control, a treatment with 0.1% Tween, and a treatment with a currently used standard fungicide treatment for yellow rust was also included in the test. One day after spraying of the plants, they were inoculated with Puccinia striiformis which is the causative agent of yellow rust. Plants were assessed for attack with yellow rust 13, 19 and 21 days after infection with yellow rust.

[6] = system: European grapes (Vitis vinifera); experiment: Phytotoxicity evaluation in the grapevine downy mildew trial
[7] = system: powdery mildew (Podosphaera aphanis); experiment: Powdery mildew in strawberries, controlled environment trial; conditions: crop Strawberries
Procedure: The efficacy was evaluated as % area of leaves that were infected with disease based on evaluation of 50 leaves from each plant. The evaluation was performed 30 days after the first treatment and 10 days after the last treatment.
Five different treatments were applied; 1) an untreated control, 2) zosteric acid at 3%, 3) zosteric acid at 6%, 4) zosteric acid at 9%, 5) Karma at 3 kg/ha. […] Four treatment applications were performed at day 0, 7, 14, and 21 respectively. Prior to each application the infection and phytotoxicity of the plants were evaluated and scored.

[8] = system: downy mildew in grapevine (plasmopara viticola); experiment: Downy mildew in grapevine, controlled environment trial, foliar spray

O=C(O)/C=C/c1ccc(OS(=O)(=O)O)cc1 [zosteric acid]
reduction of pest severity ([1]; 0 days from the curative treatment): 7.8% | reduction of pest severity ([1]; 4 days from the curative treatment): 7.3% | reduction of pest severity ([1]; 7 days from the curative treatment): 6.6% | zosteric acid effective (Yes/No) ([1]; Potato blight, crop Solanum tuberosum / potato): highly effective and Yes | phytotoxic effects [2]: No phytotoxic effects were observed | time after inoculation until A. alternata growth was displayed (Alternaria alternata): 19 days | time after inoculation until P. digitatum growth was observed (Penicillium digitatum; lemons sprayed twice, 10° C., followed 25 days, triplicate): 19 days | replicates with P. digitatum growth at end of test period (Penicillium digitatum; lemons, day 25, three replicates): only a single replicate | phytotoxicity [3]: no phytotoxicity | zosteric acid effective (Yes/No) [4]: not effective and No | zosteric acid effective (Yes/No) (Ustilago nuda): no efficacy and No | zosteric acid effective (Yes/No) (Septoria tritici): not effective and No | zosteric acid effective (Yes/No) (Leptosphaeria maculans): not effective and No | zosteric acid effective (Yes/No) (Cercospora beticola): not effective and No | zosteric acid effective (Yes/No) (Magnaporthe grisea): Yes | zosteric acid effective (Yes/No) [5]: Yes | zosteric acid effective (Yes/No) (Penicillium citrinum): Yes | zosteric acid effective (Yes/No) (Aspergillus niger): Yes | zosteric acid effective (Yes/No) (pyronophora graminea; Barley stripe, crop Barley): Yes | reduction of percentage of infected plant ears compared to untreated control (pyronophora graminea; barley seeds treated with 0.1% zosteric acid): more than 2 fold | reduction of percentage of infected plant ears compared to untreated control (pyronophora graminea; barley seeds treated with 1% zosteric acid): more than 2 fold | zosteric acid effective (Yes/No) (tilletia caries; Common bunt of wheat, crop Wheat): good efficacy and Yes | effect in combination with Redigo Pro (tilletia caries; protection against common bunt of wheat, seed dressing): strong synergistic effect | reduction of percentage of infected plant ears compared to untreated control (tilletia caries; wheat seeds treated with 0.1% zosteric acid): more than 2 fold | reduction of percentage of infected plant ears compared to untreated control (tilletia caries; wheat seeds treated with 1% zosteric acid): more than 2 fold | zosteric acid effective (Yes/No) (Puccinia striiformis): effective and Yes | phytotoxicity ([6]; 1% zosteric acid, scored 13 days after application): < 0.5% | phytotoxicity ([6]; 5% treatment, Example 9 trial): 7% | phytotoxic effects ([6]; at the effective concentration, scored 13 days after application): does not have significant phytotoxic effects | phytotoxicity ([6]; high concentrations (>2%), scored 13 days after application): start to be phytotoxic | zosteric acid effective (Yes/No) [7]: Yes | zosteric acid effective (Yes/No) ([8]; Downy mildew in wine, crop Vitis vinifera / European grape): highly effective and Yes | efficacy compared with positive control Funguran Progress (copper) ([8]; Example 9 trial): comparable to the positive control Funguran Progress | dose response of disease control ([8]; increasing doses of zosteric acid, scored 17 days after application): clear dose response
